Test results: article PMC10244169, “Psychedelics promote plasticity by directly binding to BDNF receptor TrkB” (Nature Neuroscience, 2023)
Where a name gives a salt, the structure may show the parent alone. Read-outs that look alike come from different tables or passages of the source.

Experiments:
TrkB (WT) dimerization = target: T1, TrkB (WT) dimerization (Rattus norvegicus, UniProt Q63604); test: Split-luciferase PCA of TrkB dimerization in N2a cells; type: cell-based; conditions: for Group mean (Mean 2; Vehicle:Vehicle = 100), fig 4e: n=48
T1 construct: expressed in transfected cells; host or cells: N2a
T1 sequence (Q63604 32-821): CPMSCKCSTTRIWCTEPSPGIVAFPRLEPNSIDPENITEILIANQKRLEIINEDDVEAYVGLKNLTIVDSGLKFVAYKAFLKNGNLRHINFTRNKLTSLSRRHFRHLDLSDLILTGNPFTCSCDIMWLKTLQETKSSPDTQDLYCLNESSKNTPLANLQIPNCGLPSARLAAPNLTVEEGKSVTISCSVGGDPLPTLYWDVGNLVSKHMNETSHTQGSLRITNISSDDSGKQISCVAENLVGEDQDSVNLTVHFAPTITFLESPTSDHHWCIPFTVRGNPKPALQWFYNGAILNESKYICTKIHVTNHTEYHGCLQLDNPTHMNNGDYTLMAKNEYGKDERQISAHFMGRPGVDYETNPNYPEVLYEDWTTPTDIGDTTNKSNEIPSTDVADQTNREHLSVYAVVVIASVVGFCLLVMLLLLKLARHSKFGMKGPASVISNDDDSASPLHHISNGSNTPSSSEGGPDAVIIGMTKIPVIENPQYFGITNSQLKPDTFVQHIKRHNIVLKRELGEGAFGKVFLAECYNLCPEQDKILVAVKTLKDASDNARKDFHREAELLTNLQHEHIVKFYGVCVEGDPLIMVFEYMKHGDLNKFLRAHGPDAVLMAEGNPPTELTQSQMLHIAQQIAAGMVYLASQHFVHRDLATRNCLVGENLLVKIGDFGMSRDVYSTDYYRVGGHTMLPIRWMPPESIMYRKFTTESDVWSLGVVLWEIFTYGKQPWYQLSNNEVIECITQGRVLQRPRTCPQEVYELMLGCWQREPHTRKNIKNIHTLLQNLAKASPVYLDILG
T1 sequence (Q63604 32-821): as above
Experimental: Ketanserin, M100907 and TRKB.FC were added to the media 10 min before treatment. The PCA method was performed as previously described[11],[75],[76]. Split humanized Gaussia princeps luciferase (hGLuc) was cloned on the C-terminus of the reporter proteins TrkB (WT and Y433F) and lipid raft Fyn. If the reporter proteins that carry complementary halves of the luciferase interact, the enzyme can refold in its functional conformation and, upon addition of its substrate, produce luminescence proportionally to the amount of reporter proteins interacting at a given time. N2a cells were seeded in 96-well plates with opaque walls and transparent bottom (PerkinElmer, ViewPlate 96). Cells were transfected with Lipofectamine 2000 according to the manufacturer’s instructions 24 h post-plating with the PCA pair plasmids: phGLuc(1C)-TrkB(WT) or the mutant phGLuc(1C)-TrkB(Y433F) and phGLuc(2 C)-TrkB(WT) for the dimerization experiments; phGLuc(1C)-lipid raft Fyn and phGLuc(2C)-TrkB(WT) or phGLuc(2C)-TrkB(Y433F) for the lipid raft localization experiments. Forty-eight hours post transfection, cells were treated (40 min, 37 °C) in phenol red-free Dulbecco’s modified Eagle medium without serum. […] The PCA signal was detected with the substrate for the luciferase, native coelenterazine, which was injected into each well directly in the plate reader at a final concentration of […].

[1] = test system: spine density of neuronal cultures; test: Spinogenesis in mature neuronal cultures (WT and Y433F^+/−); type: cell-based, mouse; design: 6d: Mean (spinogenesis, spine density) / 6e: Mean (spinogenesis, spine density): unit not given here
Experimental: Spinogenesis experiments were performed similarly to previous studies[12],[13] with modifications. […] In a separate set of experiments to study the effects of extracellular BDNF and 5-HT2A activation, cultures were also pretreated for 10 min with TrkB.FC (200 ng ml^−1) or M100907 (100 nM), respectively. TrkB.FC and M100907 remained in the medium for the rest of the experiment. Twenty-four hours later, coverslips were fixed with 4% PFA, washed with PBS, incubated with blocking buffer (0.1% Triton X-100, 0.05% Tween-20, 10% normal donkey serum, 1% BSA and 0.1% gelatin in PBS) for 1 h at room temperature and then overnight with rabbit anti-MAP2 (Invitrogen, PA5-17646; 1:100) primary antibody at 4 °C. After washing with PBS, coverslips were incubated with CF568-conjugated donkey anti-rabbit (Biotium, 20098; 1:500) for 1 h at room temperature. Another round of PBS washes was followed by incubation with Alexa Fluor 647-conjugated phalloidin (Invitrogen, A22287; 1:40) overnight at 4 °C. Next, coverslips were briefly washed in phosphate buffer (PB) and mounted on slides with ProLong Glass Antifade Mountant (Invitrogen, P36982). We used a Zeiss LSM 880 confocal microscope with an AiryScan GaAsP detector equipped with a PlanApochromat 63×/1.4 NA objective. We used the BP 495–550 + LP 570 AiryScan filter and Zen Black in super-resolution mode for image acquisition. Pinhole size was adapted accordingly, and frame size was set to optimal. Sensors were set to continuous adjustment across the imaging sessions to ensure optimal sensor alignment and signal detection. Raw data were processed into AiryScan images with the autofilter mode on using Zen Blue. Finally, image analysis was performed in ImageJ by experimenters blinded for treatment and genotype. Spines were quantified in 15-µm-long dendrite sections.

[2] = test system: dendritic arbor complexity of neuronal cultures; test: Dendritogenesis (Sholl analysis) in neuronal cultures (WT and Y433F^+/−); type: cell-based, mouse; conditions: for Sholl analysis, Mean at distance from soma: fig 6j
Experimental: In a separate set of experiments to study the effects of extracellular BDNF and 5-HT2A activation, cultures were also pretreated for 10 min with TrkB.FC (200 ng ml^−1) or M100907 (100 nM), respectively. Similar to treatment with the psychedelics, TrkB.FC and M100907 pretreatments were administered in cumulative doses and remained in the medium for the rest of the experiment. At DIV7, neurons were pre-incubated for 1 h with […] MgCl2 to prevent excitotoxicity, then neurons were transfected for the heterologous expression of mCherry. To minimize any possible interference of the transfection protocol upon the drug effect, transfection was done in the morning while treatment with psychedelics was always added in the evening. Twenty-four hours after transfection, neurons were fixed with 4% PFA for 20 min at room temperature, washed in PBS-T, blocked for 30 min with 3% BSA in PBS-T and incubated with chicken anti-MAP2 (Abcam, ab5392; 1:5,000, 1 h, room temperature). Then, coverslips were washed in PBS-T and incubated with Alexa Fluor 647-conjugated antibody goat anti-chicken (Invitrogen, A-21449; 1:1,000, 1 h, room temperature). Next, coverslips were washed in PBS-T and MilliQ water, and mounted in Dako fluorescence mounting medium (Agilent, S302380-2). Ten optical sections with a Z-step of 1.3 μm were acquired using a Zeiss LSM 710 confocal microscope with a LCI Plan/Neofluar 25×/0.8 lmm Korr DIC M27 objective. In the mCherry channel, the center of the soma was manually assigned and the number of dendritic intersections at fixed distances (every 5 μm) from the soma was automatically counted using the Sholl analysis plugin of ImageJ.

TrkB [3] = target: T2, TrkB (Rattus norvegicus, UniProt Q63604); test: biochemical; type: binding; conditions: for displacement of ^3H-LSD from TrkB: 1 nM to 10 µM of drug; for Bmax (specific binding with Hill slope, best-fit) / h (Hill slope, best-fit): ext fig 1f, competition curve, n=5
T2 construct: expressed in transfected cells; host or cells: HEK293T
T2 sequence (Q63604 32-821): as above

TrkB [4] = target: T2, TrkB; test: Biotin-labeled BDNF binding to immunoprecipitated TrkB; conditions: ext fig 1e, n=4
Experimental: Binding assays were performed as previously described with minor modifications. […] Samples from mouse embryo (E18) brains were also lysed, vortexed, sonicated and centrifuged for binding assays. Plates were then washed with PBS. […] For the competition binding assays with biotinylated R,R-HNK, the amino-biotinylation of R,R-HNK was performed using a commercial kit (Thermo Scientific, EZ-Link NHS-PEG4 Biotinylation Kit, 21455) and the reaction monitored by MS. A mixture of biotinylated R,R-HNK (10 µM) and unlabeled compounds (1 pM to 10 µM) in PBS was added to the 96-well plates containing the immunoprecipitated TrkB and incubated for 1 h at room temperature. […] Luminescence was determined via streptavidin conjugated with horseradish peroxidase (HRP; Thermo Fisher Scientific, 21126; 1:5,000, 1 h at room temperature) in reaction with the Pierce ECL substrate (Thermo Fisher Scientific, 32106). Luminescence from blank wells that contained all reagents but the sample lysates was used to determine nonspecific binding. To obtain the binding curves, results from binding assays were fitted to the equation of specific binding with Hill slope from GraphPad Prism 9.2. To calculate koff values, results were fitted to the equation of dissociation of one phase exponential decay from GraphPad Prism 9.2.

eGFP-tagged TrkB (WT) = target: T3, eGFP-tagged TrkB (WT) (Rattus norvegicus, UniProt Q63604); test: Microscale thermophoresis (MST) in HEK293T lysates; type: binding; conditions: native (WT) TrkB
T3 construct: expressed in transfected cells; host or cells: HEK293T
T3 sequence (Q63604 32-821): as above
Experimental: MST experiments were performed using the Monolith NT.115 (Blue/Red) instrument (NanoTemper Technologies). Lysates of HEK293T cells expressing GFP-tagged TrkB (WT, Y433F, TrkA.TM) were lysed, vortexed, sonicated and centrifuged 24 h after transient transfection and used as a source of fluorescently labeled TrkB, similarly to previously described protocols[11],[45]–[47]. The advantage of this approach is the possibility of studying the proteins in close-to-native conditions. However, the presence of other proteins, lipids, nucleic acids and other components of crude cell lysates can alter the diffusion of biomolecules and therefore binding affinities. High viscosity and background signal typically results in the affinity values being orders of magnitude […] than those of more traditional binding assays. […] The measurements were performed in premium coated capillaries (NanoTemper Technologies, MO-K025) using a LED source with 470 nm and 50% infrared-laser power at 25 °C. Analysis was performed using MO Affinity Analysis 2.3. Results were fitted to specific binding with Hill slope equations from GraphPad Prism 9.2.

[5] = treatment alone (other factor Vehicle)
[6] = TrkB.FC 200 ng ml^−1 or M100907 100 nM

## TrkB.FC: TrkB receptor bodies that sequester extracellular BDNF
TrkB (WT) dimerization; ketanserin 100 nM, M100907 100 nM or TrkB.FC 200 ng ml^−1, 10 min before
  effect of pretreatment on LSD- and BDNF-induced TrkB dimerization: prevents the effects of LSD and BDNF on TrkB dimerization
TrkB (WT) dimerization; [5]
  Group mean (Mean 2; Vehicle:Vehicle = 100), fig 4e: 100
[1]; [6]
  effect of pretreatment on spinogenic effect of LSD: prevented the spinogenic effect of LSD
[1]; substance alone (with vehicle)
  6e: Mean Diff. (Vehicle:Vehicle vs. treatment), Bonferroni's multiple comparisons test: -0.45
[1]; substance alone (with vehicle), Vehicle:Vehicle mean 7.05
  6e: Mean (spinogenesis, spine density): 7.5
[2]; [6]
  effect of pretreatment on LSD effects on dendritogenesis: prevented LSD effects on dendritogenesis
[2]; fig 6i, Bonferroni's multiple comparisons test
  dendritic arbor complexity, Mean Diff. (Vehicle:vehicle vs. group): 9.033
[2]; fig 6i, treatment:pretreatment groups, Vehicle:vehicle mean 69.72
  dendritic arbor complexity, group mean (Mean 2): 60.69
[2]; distance from soma 10 µm
  Sholl analysis, Mean at distance from soma: 6.276
[2]; distance from soma 15 µm
  Sholl analysis, Mean at distance from soma: 6.586
[2]; distance from soma 20 µm
  Sholl analysis, Mean at distance from soma: 5.414
[2]; distance from soma 25 µm
  Sholl analysis, Mean at distance from soma: 4.966
[2]; distance from soma 30 µm
  Sholl analysis, Mean at distance from soma: 4.621
[2]; distance from soma 35 µm
  Sholl analysis, Mean at distance from soma: 3.655
[2]; distance from soma 40 µm
  Sholl analysis, Mean at distance from soma: 3.414
[2]; distance from soma 45 µm
  Sholl analysis, Mean at distance from soma: 2.655
[2]; distance from soma 50 µm
  Sholl analysis, Mean at distance from soma: 2.724
[2]; distance from soma 55 µm
  Sholl analysis, Mean at distance from soma: 2.759
[2]; distance from soma 60 µm
  Sholl analysis, Mean at distance from soma: 2.2069
[2]; distance from soma 65 µm
  Sholl analysis, Mean at distance from soma: 2.241
[2]; distance from soma 70 µm
  Sholl analysis, Mean at distance from soma: 2.172
[2]; distance from soma 75 µm
  Sholl analysis, Mean at distance from soma: 1.897
[2]; distance from soma 80 µm
  Sholl analysis, Mean at distance from soma: 1.862
[2]; distance from soma 85 µm
  Sholl analysis, Mean at distance from soma: 2.034
[2]; distance from soma 90 µm
  Sholl analysis, Mean at distance from soma: 1.931
[2]; distance from soma 95 µm
  Sholl analysis, Mean at distance from soma: 1.621
[2]; distance from soma 100 µm
  Sholl analysis, Mean at distance from soma: 1.655

## CN1C(=O)CN=C(c2ccccc2)c2cc(Cl)ccc21 [diazepam]
TrkB [3]
  displacement of ^3H-LSD from TrkB: fail to displace ^3H-LSD
TrkB [3]; ext fig 1h
  Fit status, one phase exponential decay: Not converged

## CN(C)CCCN1c2ccccc2Sc2ccc(Cl)cc21 [chlorpromazine]
TrkB [3]
  displacement of ^3H-LSD from TrkB: fail to displace ^3H-LSD
TrkB [3]; ext fig 1h
  Fit status, one phase exponential decay: Interrupted
  K (one phase exponential decay, best-fit): 6.169
  Plateau (one phase exponential decay, best-fit): 142318
  Span (one phase exponential decay, best-fit): -142224

## CNC1(c2ccccc2Cl)CCCCC1=O (centres unmarked) [ketamine, Ketamine hydrochloride]
TrkB [3]
  Ki: 20.8 ± 8.86 µM
  Bmax (specific binding with Hill slope, best-fit): 98.59
  h (Hill slope, best-fit): -0.5468

## N[C@@]1(c2ccccc2Cl)CCC[C@@H](O)C1=O [R,R-HNK, 2R,6R-hydroxynorketamine]
TrkB [3]; displacement of ^3H-LSD, read-out: Ki
  Ki: 0.166 ± 0.0211 µM
TrkB [3]
  Bmax (specific binding with Hill slope, best-fit): 107.6
  h (Hill slope, best-fit): -0.8819

B1: BDNF: Brain-derived neurotrophic factor (protein, UniProt P23560 19-247, looked up)
Neurotrophic factor BDNF …: APMKEANIRGQGGLAYPGVRTHGTLESVNGPKAGSRGLTSLADTFEHVIEELLDEDQKVRPNEENNKDADLYTSRVMLSSQVPLEPPLLFLLEEYKNYLDAANMSMRVRRHSDPARRGELSVCDSISEWVTAADKKTAVDMSGGTVTVLEKVPVSKGQLKQYFYETKCNPMGYTKEGCRGIDKRHWNSQCRTTQSYVRALTMDSKKRIGWRFIRIDTSCVCTLTIKRGR
TrkB [4]
  Bmax (specific binding with Hill slope, best-fit): 7.546
  h (Hill slope, best-fit): 0.8134
TrkB [4]; read-out: Kd (specific binding with Hill slope, best-fit)
  Kd: 1.22 µM
TrkB (WT) dimerization; BDNF 0.1ng/ml, Control (no LSD), n=8
  Group mean (Mean 2; Control:Vehicle = 100), fig 4f: 147.4
TrkB (WT) dimerization; [5]
  Group mean (Mean 2; Vehicle:Vehicle = 100), fig 4e: 144.1
TrkB (WT) dimerization; with TrkB.FC
  Group mean (Mean 2; Vehicle:Vehicle = 100), fig 4e: 103
eGFP-tagged TrkB (WT)
  binding by MST: induces a shift in fluorescence
